What was measured:
SLG_11410 = target: T1, SLG_11410 (Sphingobium sp. SYK-6, UniProt G2IPY8); assay: HPLC, E. coli cell extract; type: biochemical; conditions: 100 μM substrate, 500 μM NAD+, 30 °C
T1 construct: coding region in pET21a(+), extract of E. coli BL21(DE3)
T1 sequence (G2IPY8 1-498): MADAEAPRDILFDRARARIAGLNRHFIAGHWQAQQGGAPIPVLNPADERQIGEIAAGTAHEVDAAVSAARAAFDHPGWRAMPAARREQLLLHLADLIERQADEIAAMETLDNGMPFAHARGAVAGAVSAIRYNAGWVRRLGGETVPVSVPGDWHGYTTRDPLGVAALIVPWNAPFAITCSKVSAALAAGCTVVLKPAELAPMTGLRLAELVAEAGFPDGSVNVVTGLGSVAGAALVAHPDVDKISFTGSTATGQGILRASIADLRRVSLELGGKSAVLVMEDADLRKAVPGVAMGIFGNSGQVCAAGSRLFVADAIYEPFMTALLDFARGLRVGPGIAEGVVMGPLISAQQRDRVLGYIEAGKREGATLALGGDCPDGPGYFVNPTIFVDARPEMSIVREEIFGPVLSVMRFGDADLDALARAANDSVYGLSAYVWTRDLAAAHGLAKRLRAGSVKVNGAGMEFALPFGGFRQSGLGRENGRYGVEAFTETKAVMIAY

SLG_38120 = target: T2, SLG_38120 (Sphingobium sp. SYK-6, UniProt G2IRC1); assay: HPLC, E. coli cell extract; type: biochemical; conditions: 100 μM substrate, 500 μM NAD+, 30 °C
T2 construct: gene feaB; coding region in pET21a(+), extract of E. coli BL21(DE3)
T2 sequence (G2IRC1 1-493): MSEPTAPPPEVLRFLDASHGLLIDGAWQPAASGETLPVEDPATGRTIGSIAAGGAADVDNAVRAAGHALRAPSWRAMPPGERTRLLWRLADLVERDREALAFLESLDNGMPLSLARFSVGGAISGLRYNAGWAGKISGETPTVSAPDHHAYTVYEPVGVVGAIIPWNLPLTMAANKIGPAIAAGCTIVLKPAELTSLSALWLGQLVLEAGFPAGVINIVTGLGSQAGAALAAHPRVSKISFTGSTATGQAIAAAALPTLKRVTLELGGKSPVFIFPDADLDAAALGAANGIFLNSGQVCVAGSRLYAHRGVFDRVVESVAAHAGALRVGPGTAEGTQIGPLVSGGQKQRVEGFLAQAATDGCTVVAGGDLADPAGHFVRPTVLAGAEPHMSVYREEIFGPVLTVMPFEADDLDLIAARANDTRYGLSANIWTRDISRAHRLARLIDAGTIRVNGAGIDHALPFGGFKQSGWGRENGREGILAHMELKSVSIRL

## COc1cc(C=O)cc(OC)c1O [syringaldehyde]
SLG_11410
  specific activity: All these aromatic ALDH gene products converted SN into syringate
SLG_38120
  specific activity: All these aromatic ALDH gene products converted SN into syringate

Source: article PMC5353671, “A bacterial aromatic aldehyde dehydrogenase critical for the efficient catabolism of syringaldehyde” (Scientific Reports, 2017)
